Source: doi:10.1101/2024.07.07.602414v1 (bioRxiv, 2024)
One block for each substance: values may come before it.

Experiments:
Droplet microstructure = format: physicochemical; details: CLSM and fast FLIM with SBD dye, 448 nm excitation
[1] = Redox controlled droplet formation through LLPS; format: physicochemical
[2] = Encapsulation efficiency of guest fluorophores by droplets; format: physicochemical
[3] = format: physicochemical; details: 30 mg/mL, CLSM and fast FLIM

Substance: YRYY
droplet microstructure (core-shell or homogeneous) (Droplet microstructure): formed homogeneous droplets

Substance: YCGY
solubility in aqueous solution ([1]; aqueous solution, words only): very good solubility | state of the droplet emulsion after adding DTT ([1]; oxidised peptide, then DTT, 5 mins at room temperature, CLSM / bright field): clear solution | concentration at which the peptide still does not undergo LLPS ([1]; reduced (thiol) peptide, aqueous solution): 80000 µg/mL

Substance: WYWW
behaviour of droplets when the fluorophores were added, pH 7.5 ([2]; pH 7.5, fluorophores added): tend to aggregates | behaviour of droplets when the fluorophores were added, pH 9.0 ([2]; pH 9.0, fluorophores added): relatively stable

Substance: WGWW
droplet microstructure (core-shell or homogeneous) (Droplet microstructure): show similar results with the R group

More lines, now with the values ahead:

droplet microstructure (core-shell or homogeneous) (Droplet microstructure): show similar results with the R group
Substance: YGYY

droplet microstructure before oxidation ([3]; pH 7.5 (1 M NaOH), SBD dye): forms homogeneous droplets | droplet microstructure after oxidation by H2O2 ([3]; pH 7.5, 1 μL H2O2 (1M), 5 mins at room temperature): transform into the multiphasic droplets
Substance: WCRY
